Data set [1] relates to phospho-4E-BP1 (Thr37/Thr46) protein. The data set can be described thus: Relative phospho-4E-BP1 protein amount (ELISA) in human bile duct cancer cell line HuH-28 (Example 7). The class given is cell-based. The following applies: metformin 20 mmol/L, dihydroquercetin 0.2 mmol/L, single or combined, 6 hr, control 58.8.
Description: On the following day after cell seeding, test substances were added and the cells were cultured for 6 hr before harvesting them. The amounts of relative phospho-4E-BP1 protein contained in the prepared whole cell lysates were measured and evaluated. Each group (N=3) was treated as follows: • (1) Control (vehicle control) group: 1% ethanol containing medium • (2) Metformin single-treated group: metformin 20 mmol/L • (3) dihydroquercetin single-treated group: dihydroquercetin 0.2 mmol/L • (4) combined-treated group: metformin 20 mmol/L+dihydroquercetin 0.2 mmol/L
The passage-cultured HuH-28 cells were dissociated with trypsin, and suspended in the medium. The cell density of the cell suspension was determined using a hematocytometer and adjusted to 2.5×10^5 cells/mL. The cells were seeded on 12-well multiwell culture plate at 1 mL per well, and cultured overnight under the conditions of 37° C., 5% CO2. […] Upon centrifugation, the supernatants were sampled, and the amounts of relative phospho-4E-BP1 (Thr37/Thr46) protein in the samples were quantified using ELISA kits in the same manner as in Example 1. The total protein concentrations in the whole cell lysates were measured using BCA protein assay, and the relative phospho-4E-BP1 protein amount of each well was normalized with the total protein amount. […]
Data set [2] concerns WI-38 cells. Description: Lactate production in human lung fibroblast cell line WI-38, racemate and optically-active dihydroquercetin (Example 10). The note with it: for Metformin-induced lactate production: dihydroquercetin 1 mmol/L added 1 hr before metformin 20 mmol/L, 6 hr (FIG. 4, FIG. 5); for Lactate production: dihydroquercetin 1 mmol/L single, compared with the control group (FIG. 4, FIG. 5). Here is the method: On the following day after cell seeding, dihydroquercetin was added and the cells were cultured for 1 hr. Then, metformin was added and the cells were cultured for 6 hr. The conditioned medium was sampled, and the concentration of the lactate contained in the medium was measured and evaluated. Each group (N=3) was treated as follows: • (1) Control (vehicle control) group: 1% ethanol containing medium • (2) Dihydroquercetin single-treated group: dihydroquercetin 1 mmol/L • (3) Metformin single-treated group: metformin 20 mmol/L • (4) Combined-treated group: metformin 20 mmol/L+dihydroquercetin 1 mmol/L
The passage-cultured WI-38 cells were dissociated with trypsin, and suspended in fresh medium. The cell density of the cell suspension was determined using a hematocytometer and adjusted to 2.5×10^5 cells/mL. The cells were seeded on 24-well multiwell culture plate (IWAKI) at 0.5 mL per well, and cultured overnight under the conditions of 37° C., 5% CO2. Thereto was added a medium containing a given concentration of dihydroquercetin and the cells were cultured for 1 hr, a medium containing a given concentration of metformin was added and the cells were further cultured for 6 hr. After culture, the culture supernatant from each well was sampled and passed through a filter for molecular weight cut-off 10 kDa to obtain the filtrate. Using the Lactate Assay Kit II (BioVision) catalog no. K627-100, lactate concentration was measured. The cells after sampling of the culture supernatant were washed twice with D-PBS, and cell lysis buffer was added to prepare whole cell lysates. The concentrations of the protein in the whole cell lysates were measured using BCA protein assay, and the lactate concentration of each well was normalized with the protein concentration.
To evaluate the influence of dihydroquercetin on the metformin-induced produced lactate content, the Student's t-test was performed for the concentration of lactate in the medium between the control group and the dihydroquercetin single agent treated group, and between the control group and the metformin single agent treated group. In addition, to evaluate an influence of the combination of dihydroquercetin and metformin for normalized produced lactate content, a two-way ANOVA (two-tailed) (factors: group and concentration) was performed between the dihydroquercetin single agent treated group (groups 1 and 2) and the metformin treated group (groups 3 and 4). […] The analysis was performed using SAS software Release 9.3 (SAS Institute Japan). The differences were considered statistically significant when the p value was less than 0.05.

Data set [3] deals with WI-38 cells. Description: Metformin-induced lactate production in human lung fibroblast cell line WI-38 (Example 3). The following applies: dihydroquercetin 1 mmol/L added 1 hr before metformin 20 mmol/L, 6 hr, vs metformin single (FIG. 3). The data set is classed as cell-based. Here is the method:
After the culture, the conditioned medium was sampled, and the concentration of lactate contained in the medium was measured and evaluated.
Medium containing the given concentration of dihydroquercetin was added to each well and the cells were cultured for 1 hr. […] Using the Lactate Assay Kit II (BioVision) catalog no. K627-100, lactate concentration was measured.

Another data set deals with AsPC-1 cells. Description: Proportion of CD44 and CD24 double positive cells (cancer stem cell surface markers) in AsPC-1 by flow cytometry (Example 12). The following applies: 72 hr, dihydroquercetin 0.3 mmol/L, metformin 15 mmol/L + dihydroquercetin 0.3 mmol/L, or gemcitabine 100 nmol/L, compared with the control group (FIG. 7). The data set is classed as cell-based, human.

The subject of data set [4] is phospho-4E-BP1 (Thr37/Thr46) protein. The data set can be described thus: Relative phospho-4E-BP1 protein amount (ELISA) in human prostate cancer cell line 22Rv1 (Example 6). The class given is cell-based. The note with it: metformin 10 mmol/L, dihydroquercetin 0.2 mmol/L, single or combined, 6 hr, control 51.0.
Description: On the following day after cell seeding, test substances were added and the cells were cultured for 6 hr before harvesting them. The amounts of relative phospho-4E-BP1 protein contained in the prepared whole cell lysates were measured and evaluated. Each group (N=3) was treated as follows: • (1) Control (vehicle control) group: 1% ethanol containing medium • (2) Metformin single-treated group: metformin 10 mmol/L • (3) Dihydroquercetin single-treated group: dihydroquercetin 0.2 mmol/L • (4) Combined-treated group: metformin 10 mmol/L+dihydroquercetin 0.2 mmol/L
The passage-cultured 22Rv1 cells were dissociated with trypsin, and suspended in fresh medium. The cell density of the cell suspension was determined using a hematocytometer and adjusted to 2.5×10^5 cells/mL. The cells were seeded on 12-well multiwell culture plate at 1 mL per well, and cultured overnight under the conditions of 37° C., 5% CO2. […] Upon centrifugation, the supernatants were sampled, and the amounts of relative phospho-4E-BP1 (Thr37/Thr46) protein in the samples were quantified using ELISA kits in the same manner as in Example 1. The concentrations of total protein in the whole cell lysates were measured using BCA protein assay, and the relative phospho-4E-BP1 protein amount of each well was normalized with the total protein amount. […]
Data set [5] shares this test system. Description: Relative phospho-4E-BP1 protein amount (ELISA) in human pancreatic cancer cell line AsPC-1, 24 hr (Example 9). The class given is cell-based. The following applies: single or combined.
Description: Each group (N=3) was treated as follows. • (1) Control (vehicle control) group: 1% ethanol containing medium • (2) Metformin single-treated group: metformin 1.5, 3 and 6 mmol/L • (3) Dihydroquercetin-single treated group: dihydroquercetin 0.3 mmol/L • (4) Combined-treated group: metformin 1.5, 3 and 6 mmol/L+dihydroquercetin 0.3 mmol/L
The passage-cultured AsPC-1 cells were dissociated with trypsin, and suspended in fresh medium. The cell density of the cell suspension was determined using a hematocytometer and adjusted to 2.5×10^5 cells/mL. The cells were seeded on 12-well multiwell culture plate at 1 mL per well, and cultured overnight under the conditions of 37° C., 5% CO2. On the following day, medium containing metformin or dihydroquercetin or both metformin and dihydroquercetin, at the given concentration, was added into each well. After incubation under the conditions of 37° C., 5% CO2 for 24 hr, the cells in each well were washed twice with D-PBS, and whole cell lysates were prepared using cell lysis buffer. Upon centrifugation, the supernatants were sampled, and the amounts of relative phospho-4E-BP1 (Thr37/Thr46) protein in the samples were quantified using ELISA kits in the same manner as in Example 1. The concentrations of total protein in the whole cell lysates were measured using BCA protein assay, and the relative phospho-4E-BP1 protein amount of each well was normalized with the total protein amount.
To evaluate the influence of the combined use on relative phospho-4E-BP1 protein amount, Dunnett test was performed to compare the combined-treated group with each single agent-treated group. […] The differences were considered statistically significant when the p value was less than 0.05.
Data set [6] shares this test system. The data set can be described thus: Relative phospho-4E-BP1 protein amount (ELISA) in human breast cancer cell line MDA-MB-231 (Example 5). The following applies: metformin 5 mmol/L, dihydroquercetin 0.2 mmol/L, single or combined, 6 hr, control 33.3. The class given is cell-based.
Description: (§1) On the following day after cell seeding, test substances were added and the cells were cultured for 6 hr before harvesting them. The amounts of relative phospho-4E-BP1 protein contained in the prepared whole cell lysates were measured and evaluated. Each group (N=3) was treated as follows: • (1) Control (vehicle control) group: 1% ethanol containing medium • (2) Metformin single-treated group: metformin 5 mmol/L • (3) Dihydroquercetin single-treated group: dihydroquercetin 0.2 mmol/L • (4) Combined-treated group: metformin 5 mmol/L+dihydroquercetin 0.2 mmol/L
The passage-cultured MDA-MB-231 cells were dissociated with trypsin, and suspended in fresh medium. The cell density of the cell suspension was determined using a hematocytometor and adjusted to 2.5×10^5 cells/mL. The cells were seeded on 12-well multiwell culture plate at 1 mL per well, and cultured overnight under the conditions of 37° C., 5% CO2. […] Upon centrifugation, the supernatants were sampled, and the amounts of relative phospho-4E-BP1 (Thr37/Thr46) protein in the samples were quantified using ELISA kits in the same manner as in Example 1. The concentrations of total protein in the whole cell lysates were measured using BOA protein assay, and the relative phospho-4E-BP1 protein amount of each well was normalized with the total protein amount. […]
The test system is the same in data set [7]. Description: Relative phospho-4E-BP1 protein amount (ELISA) in human ovarian cancer cell line Caov-3 (Example 8). The following applies: metformin 20 mmol/L, dihydroquercetin 0.2 mmol/L, single or combined, 6 hr, control 21.6. The class given is cell-based.
Description: On the following day after cell seeding, test substances were added and the cells were cultured for 6 hr before harvesting them. The amounts of relative phospho-4E-BP1 protein contained in the prepared whole cell lysates were measured and evaluated. Each group (N=3) was treated as follows: • (1) Control (vehicle control) group: 1% ethanol containing medium • (2) Metformin single-treated group: metformin 20 mmol/L • (3) Dihydroquercetin single-treated group: dihydroquercetin 0.2 mmol/L • (4) Combined-treated group: metformin 20 mmol/L+dihydroquercetin 0.2 mmol/L
The passage-cultured Caov-3 cells were dissociated with trypsin, and suspended in fresh medium. The cell density of the cell suspension was determined using a hematocytometer and adjusted to 2.5×10^5 cells/mL. The cells were seeded on 12-well multiwell culture plate at 1 mL per well, and cultured overnight under the conditions of 37° C., 5% CO2. […] Upon centrifugation, the supernatants were sampled, and the amounts of relative phospho-4E-BP1 (Thr37/Thr46) protein in the samples were quantified using ELISA kits in the same manner as in Example 1. The total protein concentrations in the whole cell lysates were measured using BCA protein assay, and the relative phospho-4E-BP1 protein amount of each well was normalized with the total protein amount. […]
The test system is the same in data set [8]. Description: Relative phospho-4E-BP1 protein amount (ELISA) in AsPC-1, dihydroquercetin single agent (Example 11). The data set is classed as cell-based, human. The method, then: To evaluate the dose dependency of dihydroquercetin on the relative phospho-4E-BP1 protein amount, the linear regression analysis was performed. As a result, dose dependency was observed. Then, the Williams' test (one-tailed) was performed between the control group and the single agent treated group. As a result, a significant suppressive action of dihydroquercetin at not less than 0.5 mmol/L on relative phospho-4E-BP1 protein amount was observed.

Data set [9] shares this test system. Description: Relative phospho-4E-BP1 protein amount (ELISA) in human liver cancer cell line HuH-7 (Example 4). The data set is classed as cell-based. The following applies: metformin 5 mmol/L, dihydroquercetin 0.2 mmol/L, single or combined, 6 hr, control 84.1.
Description: as §1
The passage-cultured HuH-7 cells were dissociated with trypsin, and suspended in fresh medium. The cell density of the cell suspension was determined using a hematocytometer and adjusted to 2.5×10^5 cells/mL. The cells were seeded on 12-well multiwell culture plate at 1 mL per well, and cultured overnight under the conditions of 37° C., 5% CO2. […] Upon centrifugation, the supernatants were sampled, and the amounts of relative phospho-4E-BP1 (Thr37/Thr46) protein in the samples were quantified using ELISA kits in the same manner as in Example 1. The concentrations of the total protein in the whole cell lysates were measured using BCA protein assay, and the relative phospho-4E-BP1 protein amount of each well was normalized with the total protein amount. […]
The mark [10] stands for this setting: metformin:dihydroquercetin = 1.5 mmol/L:0.3 mmol/L, control 107.3.
The mark [11] stands for this setting: metformin:dihydroquercetin = 3 mmol/L:0.3 mmol/L, control 33.5.
[12] abbreviates: metformin:dihydroquercetin = 6 mmol/L:0.3 mmol/L, control 107.3.

The text below walks through data of US10292962B2, “Pharmaceutical combination comprising metformin and dihydroquercetin and its use for the treatment of cancer” (RESEARCH INSTITUTE FOR NUTRITION AND AGING CO., LTD., priority 2013, dated 2019).

Description for AsPC-1 cells: Each group (N=10) was treated as follows: • (1) Control (vehicle control) group: 1.5% distilled water, 0.3% ethanol and 0.1% DMSO containing medium • (2) Metformin single-treated group: metformin 15 mmol/L • (3) Dihydroquercetin single-treated group: dihydroquercetin 0.3 mmol/L • (4) Metformin-dihydroquercetin combined-treated group: metformin 15 mmol/L+dihydroquercetin 0.3 mmol/L • (5) Gemcitabine single-treated group: gemcitabine 100 nmol/L • (6) Metformin.dihydroquercetin.gemcitabine combined-treated group: metformin 15 mmol/L+dihydroquercetin 0.3 mmol/L+gemcitabine 100 nmol/L
The passage-cultured AsPC-1 cells were dissociated with trypsin, and suspended in fresh medium. The cell density of the cell suspension was determined using a hematocytometer and adjusted to 2×10^4 cells/mL. The cells were seeded on 6-well multiwell culture plate (IWAKI) at 3 mL per well, and cultured overnight under the conditions of 37° C., 5% CO2. […] After washing with FACS (fluorescence activated cell sorting) buffer, the cells were stained with FITC-labeled anti-human CD44 antibody and APC-labeled anti-human CD24 antibody, and treated at 4° C. for 30 min. Thereafter, the cells were washed with the FACS buffer, passed through a 40 micron mesh filter, and the proportion of CD44 and CD24 double positive cells was determined using the flow cytometer (Nippon Becton Dickinson and Company, Ltd.). […]

Regarding `O=C1c2c(O)cc(O)cc2OC(c2ccc(O)c(O)c2)C1O` (racemic) [Dihydroquercetin, dihydroquercetin], the “Relative phospho-4E-BP1 protein amount MEAN” value in data set [1] turned out to be 54.2; in data set [4], 53.1; in [5] (setting [10]) it was 97.4; in data set [5] (setting [11]), 37.2; in data set [5] (setting [12]), 89.7; in data set [6] it was 25.9. For the same compound, the “Relative phospho-4E-BP1 protein amount MEAN” value in data set [7] turned out to be 21.0; in [9] it was 59.7. The Metformin-induced lactate production result with WI-38 cells [2] is “significantly suppressed”. Also, the Lactate production result in the data set with WI-38 cells [2] was “suppressed lactate production”. The “Lactate production induced by metformin” value in the data set with WI-38 cells [3] is reported as “significantly suppressed the lactate production induced by metformin”. In the data set on AsPC-1 cells, the “Proportion of CD44 and CD24 double positive cells” value was “significantly decreased”. In addition, the “Concentration of dihydroquercetin with significant suppressive action on relative phospho-4E-BP1 protein amount” value in [8] (6 hr, Williams' test vs control group) was “not less than 0.5 mmol/L”. For the same compound, in [8] (dihydroquercetin 0.5 and 1 mmol/L single agent, 6 hr (FIG. 6)), the “Relative phospho-4E-BP1 protein amount” value is listed as “dose-dependent suppressive effect”.

For `Nc1ccn([C@@H]2O[C@H](CO)[C@@H](O)C2(F)F)c(=O)n1` [Gemcitabine, gemcitabine, reference compound], the “Proportion of CD44 and CD24 double positive cells” value in the data set with AsPC-1 cells is recorded as “significantly increased”.

`O=C1c2c(O)cc(O)cc2O[C@H](c2ccc(O)c(O)c2)[C@H]1O` [optically-active dihydroquercetin, (2R,3R)-dihydroquercetin]: in the data set with WI-38 cells [2], the Metformin-induced lactate production entry is given as “significantly suppressed” and the Lactate production entry is reported as “suppressed lactate production”.

Turning to `CN(C)C(=N)N=C(N)N` [Metformin, metformin], the “Relative phospho-4E-BP1 protein amount MEAN” value was 55.2 in [1]; 57.3 in data set [4]; 83.1 in data set [5] (setting [10]); 36.9 in data set [5] (setting [11]); 83.1 in data set [5] (setting [12]); 37.1 in data set [6]. For the same compound, the “Relative phospho-4E-BP1 protein amount MEAN” value in data set [7] turned out to be 22.0; in data set [9], 61.7.
